Counter-ions that a name gives are not always drawn. Like-named read-outs stand apart in the source and are kept apart here.
Legend:
[1] = test system: Jurkat HIV-luciferase clones; conditions: background statement; cited from earlier work
[2] = test system: cell-associated HIV RNA (HIV gag RNA) in CD4+ T cells; conditions: background statement, primary cells / resting CD4+ T cells; cited from earlier work
p100/p52 [3] = conditions: background statement, primary cells; cited from earlier work
p100/p52 [4] = assay: p100/p52 Western blot (WB) assay; assay type: cell-based, human; conditions: Homo sapiens, PBMC, 24 h, read-out: p100/p52 Western Blot (WB) EC50 (nM)
Method: Cell cultures were set up to evaluate several SMACm compounds. Frozen PBMC cells from healthy donors were thawed and plated in 2 ml deepwell plates at 2×10^6 cells/ml. Serial dilutions of each compound was carried out as a 7 fold 1:6 dilution with the starting final dose of 1000 nM. Cells were then combined with compound and place at 37° for 24 hrs. The following day cells were pelleted and placed at −80 until lysis.
In preparation for cell lysis, the frozen cell pellets and an aliquot of NP40 Cell Lysis Buffer (Invitrogen, Part #FNN0021), as well as an aliquot of 10× Protease Inhibitor Cocktail (Sigma, Part #P-2714) are thawed on ice. Once thawed, the complete lysis buffer is prepared by adding 10% final volume PI cocktail to the NP40 buffer and then adding in sufficient volume of 0.1 M PMSF (Sigma, Part #93482) and 1 M DTT (Sigma, Part #43816) to create a final concentration of 1 mM each in the complete lysis buffer. Cell lysis is then carried out by resuspending each cell pellet in 30 μL per 10^6 cells then incubating on ice for 30 minutes with vigorous vortexing every 10 minutes. The lysed cells are then centrifuged at 13K RPM for 10 minutes at 4° C. in a refrigerated microcentrifuge. The supernatants (lysates) are then transferred into new microcentrifuge tubes and either stored at −80° or utilized immediately for protein concentration and Western blot analysis.
Protein concentration for each lysate is determined using a detergent compatible Bradford assay (Pierce, Part #23246) following the manufacturer's microplate instructions.
Capillary Western analysis were performed using the ProteinSimple Jess System. A total of 1 ug of cell lysate was prepared according to the provided protocol supplied by ProteinSimple. The primary antibody for p100/p52 (Cell, Signaling #3017) is diluted 1:10 for use in the Jess system. The 12-230 kDa Jess Seperation Module capillary cartridges Separation Module (SM-W004) is used in conjunction with the Anti-Rabbit Secondary NIR conjugate (043-819). The Separation module includes prefilled plates that the samples, primary and secondary antibodies, as well as protein normalization reagent and diluents are loaded onto to perform separation and detection. Once the assay has run, the data is then analyzed utilizing the Compass software provided by ProteinSimple.
Alternatively to capillary electrophoresis, traditional immunoblot assays were carried out, 10 μg of cell lysate was loaded per well into 4-20% Tris-Glycine SDS-PAGE gels. Protein from the SDS-PAGE gels were transferred to Turbo Midi PVDF Transfer Packs (BioRad) using the “Mixed MW” protocol for one Midi Format Gel (constant 2.5 A up to 25V, for 7 minutes) of the Trans-Blot Turbo Transfer System (Bio-Rad) with premade Trans-Blot per the manufacturer's instructions. After transfer, PVDF membranes were blocked in 5% bovine serum albumin (BSA) in 1×TBS (BioRad) with 0.1% Tween-20 for 1 hour at room temperature with gentle rocking. Primary antibodies were added and incubated overnight at 4° C. (anti-p100/p52, Cell Signaling Technology #3017, 1:1000; anti-Actin-HRP conjugate, Abcam #49900, 1:30,000). Following primary staining, the membrane washed three times with 1× Tris Buffered Saline (TBS)+0.1% TWEEN® 20 for 10 minutes each wash. After washing, the membrane was incubated in 5% BSA in 1×TBS+0.1% TWEEN® 20 with the appropriate secondary antibody for 2 hours at room temperature. Following secondary stain the membrane was washed twice for 10 minutes with 1×TBS+0.1% TWEEN® 20 followed by a 10-minute wash with 1×TBS. The membrane was then patted dry with filter paper and an image was captured of the undeveloped membrane on the ChemiDoc MP Imaging System using Image Lab software (BioRad). Sufficient ECL reagent (GE Healthcare) was used to cover the membrane and a series of images were taken starting with 0.001 second and doubling to tripling the exposure time until the luminescence from the developed membrane saturated the image. […]

[5] = test system: Jurkat HIV-luciferase clones; assay: Jurkat latency reversal assay; assay type: cell-based; conditions: Homo sapiens, Jurkat
Procedure, shortened: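 Three pooled Jurkat HIV-luciferase clones (C16, I15, N6; 5,000 cells/well, maintained with 500 nM EFV) exposed to 3-fold, 14-point titrations (10 μM to 2.1 pM, 0.5% DMSO) in duplicate for 48 h at 37 °C. Luciferase luminescence read; EC50 and maximal % activation versus vehicle from four-parameter logistic fit.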

NFKB2 = assay: NFkB2 gene induction; assay type: cell-based, human; conditions: Homo sapiens, CD4+ T, 24 h, read-out: NFkB2 gene induction EC50 (nM)
Method: 5×10^5 normal donor CD4 T cells were treated for 24h with serial dilutions of compounds starting at 1.0 μM at 6 fold, 7 places. Total RNA was isolated using the RNEasy Mini kit (Qiagen) per the manufacturer's instructions. The following TaqMan primer probe sets were sourced from Applied Biosystems: Hs00174517_m1 (NFKB2) and Hs02800695 (HPRT1). TaqMan-based real-time PCR (Fast Virus 1-Step Master Mix, Applied Biosystems) was used to amplify host genes of interest. Gene expression was normalized to HPRT1 and comparative threshold cycle (CT) method (ΔΔCT) was used for relative fold change of gene expression as compared to untreated cells. The data was analyzed by QuantStudio3 Real-Time PCR System.

[6] = Table 4 summary, read-out: Jurkat EC50

| Structure (SMILES) | potency in cell line assays / Jurkat (HIV latency reversal) [1] | HIV caRNA induction [2] | p100-p52 conversion (p100/p52 [3]) | EC50 (p100/p52 [4]) | EC50 ([5]; 48 h) | EC50 [5, 6] | EC50 (NFKB2) |
| --- | --- | --- | --- | --- | --- | --- | --- |
| CC[C@H](NC(=O)[C@H](C)NC)C(=O)N1C[C@@H](O)C[C@H]1Cc1c(-c2[nH]c3cc(F)ccc3c2C[C@@H]2C[C@H](O)CN2C(=O)[C@H](CC)NC(=O)[C@H](C)NC)[nH]c2cc(F)ccc12 [Birinapant TL32711] | not potent | not potent | not potent |  |  |  |  |
| CN[C@@H](C)C(=O)N[C@H]1CCS[C@H]2CC(C)(C)[C@@H](C(=O)N[C@H](COCC#CC#CCOC[C@@H](NC(=O)[C@H]3N4C(=O)[C@@H](NC(=O)[C@H](C)NC)CCS[C@H]4CC3(C)C)c3ccccc3)c3ccccc3)N2C1=O [compound 33, (4S,4′S,7S,7′S,9aS,9a′S)-N,N′-((1S,1′S)-(hexa-2,4-diyne-1,6-diylbis(oxy))bis(1-phenylethane-2,1-diyl))bis(8,8-dimethyl-4-((S)-2-(methylamino)propanamido)-5-oxooctahydropyrrolo[2,1-b][1,3]thiazepine-7-carboxamide) dihydrochloride] |  |  |  | 158 nM | 5.5 nM | 5.5 nM | 46 nM |
| CN[C@@H](C)C(=O)N[C@H]1CCS[C@H]2CC(C)(C)[C@@H](C(=O)N[C@H](COCCCCCCOC[C@@H](NC(=O)[C@H]3N4C(=O)[C@@H](NC(=O)[C@H](C)NC)CCS[C@H]4CC3(C)C)c3ccccc3)c3ccccc3)N2C1=O [compound 40, (4S,4′S,7S,7′S,9aS,9a′S)-N,N′-((1S,1′S)-(hexane-1,6-diylbis(oxy))bis(1-phenylethane-2,1-diyl))bis(8,8-dimethyl-4-((S)-2-(methylamino)propanamido)-5-oxooctahydropyrrolo[2,1-b][1,3]thiazepine-7-carboxamide) dihydrochloride] |  |  |  | 1 nM | 6.1 nM | 6.1 nM | 11 nM |
| CN[C@@H](C)C(=O)N[C@H]1CCS[C@H]2CC(C)(C)[C@@H](C(=O)N[C@H](COCc3ccc(COC[C@@H](NC(=O)[C@H]4N5C(=O)[C@@H](NC(=O)[C@H](C)NC)CCS[C@H]5CC4(C)C)c4ccccc4)cc3)c3ccccc3)N2C1=O [compound 42, (4S,4′S,7S,7′S,9aS,9a′S)-N,N′-((1S,1′S)-((1,4-phenylenebis(methylene))bis(oxy))bis(1-phenylethane-2,1-diyl))bis(8,8-dimethyl-4-((S)-2-(methylamino)propanamido)-5-oxooctahydropyrrolo[2,1-b][1,3]thiazepine-7-carboxamide) dihydrochloride] |  |  |  | 3.1 nM | 6.8 nM | 6.8 nM | 3.6 nM |
